Values quoted from earlier work in US20220202682A1, “INCREASING THE STABILITY OF AGENTS FOR THE TREATMENT OF KERATINOUS MATERIAL” (Henkel AG & Co. KGaA, priority 2019, published 2022).

details: 25° C.

Row | Compound | solubility in water
1 | O=S(=O)([O-])c1ccc(N=Nc2c(O)ccc3ccccc23)cc1.[Na+] [Acid Orange 7, sodium salt of 4-[(2-hydroxy-1-naphthyl)azo]benzene sulphonate] | more than 7 g/L
2 | O=C([O-])c1c(Cl)c(Cl)c(Cl)c(Cl)c1-c1c2c(Br)cc(=O)c(Br)c-2oc2c(Br)c(O)cc(Br)c12.O=C([O-])c1c(Cl)c(Cl)c(Cl)c(Cl)c1-c1c2c(Br)cc(=O)c(Br)c-2oc2c(Br)c(O)cc(Br)c12.[Na+].[Na+] [Acid Red 92, disodium salt of 3,4,5,6-tetrachloro-2-(1,4,5,8-tetrabromo-6-hydroxy-3-oxoxanthen-9-yl)benzoic acid] | greater than 10 g/L
3 | Nc1cc(S(=O)(=O)[O-])cc2cc(S(=O)(=O)[O-])c(N=Nc3ccccc3)c(O)c12.[Na+].[Na+] [Acid Red 33, disodium salt of 5-amino-4-hydroxy-3-(phenylazo)-naphthalene-2,7-disulphonate] | 2500 µg/mL
4 | O=C([O-])C1=NN(c2ccc(S(=O)(=O)[O-])cc2)C(=O)C1N=Nc1ccc(S(=O)(=O)[O-])cc1.[Na+].[Na+].[Na+] (stereo not shown) [Acid Yellow 23, trisodium salt of 4,5-dihydro-5-oxo-1-(4-sulfophenyl)-4-((4-sulfophenyl)azo)-1H-pyrazole-3-carboxylic acid] | highly soluble
